In US20020198219A1, “2-pyridinamine compositions and related methods” (priority 2000, published 2002):

Columns and labels:
EGF-R = EGF-R (Homo sapiens, UniProt P00533); experiment: biochemical
Protocol: (§1) Assay conditions varied slightly for each protein kinase, for example, insulin receptor kinase requires 10 mM MnCl2 for activity and calmodulin-dependent protein kinase requires calmodulin and 10 mM CaCl2. Reaction mix was dispensed into the wells of a streptavidin-coated Flashplate and 1 μl drug stock in 100% DMSO was added to a 100 μL reaction volume resulting in a final concentration of 1% DMSO in the reaction. Enzyme was diluted in 50 mM Tris-HCl pH=8.0, 0.1% BSA and added to each well. The reaction was incubated for one hour at 30° C. in the presence of compound. After one hour the reaction mix was aspirated from the plate and the plate was washed with PBS containing 100 mM EDTA. The plate was read on a scintillation counter to determine ^33P-γ-ATP incorporated into the immobilized peptide. Test compounds were assayed in duplicate at 8 concentrations ranging from 100 μM to 10 μM in one order of magnitude steps. A maximum and minimum signal for the assay was determined on each plate. The IC50 was calculated from the dose response curve of the percent inhibition of the maximum signal in the assay according to the formula [max signal−background/test compound signal−background×(100)]=% inhibition by graphing the percent inhibition against the log concentration of test compound. Known inhibitor compounds appropriate for the kinase being assayed were also included on each plate. […]

PK A = biological target: T1, PK A (Bos taurus, UniProt P00517); experiment: Kinase assay (33P Flashplate), Protein Kinase A; type: biochemical, bovine
T1 construct: Protein Kinase A is the catalytic subunit of cAMP-dependent protein kinase-A purified from bovine heart; from tissue; host or cells: bovine heart
Protocol: as §1

Calmodulin Kinase = biological target: T2, Calmodulin Kinase (Rattus norvegicus, UniProt P11275); experiment: Kinase assay (33P Flashplate), Calmodulin Kinase; type: biochemical; details: mean of at least two curves
T2 construct: host or cells: insect cells
T2 sequence (P11275 1-325): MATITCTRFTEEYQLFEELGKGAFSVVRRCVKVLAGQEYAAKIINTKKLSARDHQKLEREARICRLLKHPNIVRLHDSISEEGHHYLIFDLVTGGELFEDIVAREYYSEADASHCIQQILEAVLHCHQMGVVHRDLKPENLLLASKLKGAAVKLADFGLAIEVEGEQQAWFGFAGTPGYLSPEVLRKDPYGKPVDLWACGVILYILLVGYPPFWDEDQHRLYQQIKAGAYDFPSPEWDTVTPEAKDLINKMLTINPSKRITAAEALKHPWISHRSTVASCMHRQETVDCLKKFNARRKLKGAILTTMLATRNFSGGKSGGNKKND
Protocol: (§2) The general procedure used to assay for kinase activity was as follows: a kinase reaction mix was prepared in 50 mM Tris-HCl pH=8, 10 mM MgCl2, 0.1 mM Na3VO4, 1 mM DTT, 10 μM ATP, 0.25-1 μM biotinylated peptide substrate, 0.2-0.8 [Curies per well ^33P-γ-ATP [2000-3000 Ci/mmol]. Assay conditions varied slightly for each protein kinase, for example, insulin receptor kinase requires 10 mM MnCl2 for activity and calmodulin-dependent protein kinase requires calmodulin and 10 mM CaCl2. Reaction mix was dispensed into the wells of a streptavidin-coated Flashplate and 1 μl drug stock in 100% DMSO was added to a 100 μL reaction volume resulting in a final concentration of 1% DMSO in the reaction. Enzyme was diluted in 50 mM Tris-HCl pH=8.0, 0.1% BSA and added to each well. […] Test compounds were assayed in duplicate at 8 concentrations ranging from 100 μM to 10 μM in one order of magnitude steps. […] The IC50 was calculated from the dose response curve of the percent inhibition of the maximum signal in the assay according to the formula [max signal−background/test compound signal−background×(100)]=% inhibition by graphing the percent inhibition against the log concentration of test compound.
(§3) Casein Kinase 1 is a truncation at amino acid 318 of the C-terminal portion of the rat CK1 delta isoform produced in E. coli.

Casein Kinase 2 = biological target: T3, Casein Kinase 2 (Homo sapiens, UniProt P68400); experiment: Kinase assay (33P Flashplate), Casein Kinase 2; type: biochemical; details: mean of at least two curves
T3 construct: host or cells: E. coli
T3 sequence (P68400 whole entry): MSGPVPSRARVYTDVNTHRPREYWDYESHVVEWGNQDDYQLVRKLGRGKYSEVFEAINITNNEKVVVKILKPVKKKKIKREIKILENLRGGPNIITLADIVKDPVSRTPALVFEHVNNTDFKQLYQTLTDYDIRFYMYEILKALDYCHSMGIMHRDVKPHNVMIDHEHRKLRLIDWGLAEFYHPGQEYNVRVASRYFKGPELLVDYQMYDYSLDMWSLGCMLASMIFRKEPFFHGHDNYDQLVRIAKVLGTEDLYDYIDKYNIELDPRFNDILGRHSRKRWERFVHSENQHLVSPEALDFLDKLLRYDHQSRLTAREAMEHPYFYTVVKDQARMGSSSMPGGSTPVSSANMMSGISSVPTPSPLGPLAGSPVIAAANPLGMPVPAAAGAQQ
T3 sequence (P67870 whole entry partner): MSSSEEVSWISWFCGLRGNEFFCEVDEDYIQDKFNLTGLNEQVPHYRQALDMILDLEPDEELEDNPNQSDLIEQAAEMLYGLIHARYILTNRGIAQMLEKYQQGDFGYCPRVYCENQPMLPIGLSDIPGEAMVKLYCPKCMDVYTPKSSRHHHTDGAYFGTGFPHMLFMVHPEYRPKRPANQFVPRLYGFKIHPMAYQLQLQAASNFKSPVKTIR
Protocol: as §2, §3

PKC-γ = biological target: T4, PKC-γ (Homo sapiens, UniProt P05129); experiment: Kinase assay (33P Flashplate), PKC-γ; type: biochemical; details: mean of at least two curves
T4 construct: host or cells: insect cells
Protocol: as §2, §3

[1] = system: differentiated P19 neurons; experiment: Differentiated P19 excitotoxicity assay (glutamate/glycine-induced death, Alamar Blue); type: cell-based, murine; details: Mus musculus, Neuron, 3 mM glutamate + 1 mM glycine
Protocol: Alamar Blue fluorescence, an indicator of cell viability, was used to determine cell viability after an NMDA-induced cytotoxic insult. […] However, since raw fluorescence counts vary from experiment to experiment, FIGS. 2A, 2B, and 2C are expressed as a percent of control.
(§4) Glutamate toxicity dose response in the presence of a constant 1 mM glycine concentration was measured in the differentiated P19 neurons. The curve generated through the data points is the average of 6 separate dose response curves. Data points are represented as the percent of control cells ±standard error. % control=(([Glutamate]exp−[Glutamate]max)/(Controlvehicle−[Glutamate]max))×100.
Data points are the average ±standard error of three separate experiments.
These cells were used to measure the effects of various known kinase inhibitors (Compound Identification (ID) column in Table I) upon cytotoxicity-induced by NMDA. First, P19 cells were differentiated as described in Example 2. Then cells were exposed to 3 mM of glutamate in the presence of 1 mM glycine.
Cell viability was determined. Compounds that prevented excitotoxicity were determined by measuring the percentage of viable cells compared to differentiated P19 cells that were not presented with a toxic insult (Table I).
Cell viability was measured using two methods. The first method was a confocal, single-cell fluorescence imaging-based method using the live cell dye carboxy-fluorescein diacetate (CFDA). CFDA labels the cell bodies and processes of living cells. […] CFDA fluorescence was measured using a modified Attofluor Imager device (Atto Instruments, Rockville Pike, Md.). Cells were labeled with 1 uM CFDA for 15 min in media, then placed onto the stage of the Attofluor microscope. The dye was excited by light from a mercury lamp source passed through a 488 nm bandpass filter of 10 nm band width, passed through a CARV real-time confocal spinning disk module (Atto Instruments, Rockville, Md.), and then passed through a 40× oil immersion objective (Zeiss Fluar, NA=1.3). Emitted light was transmitted through a 495 nm dichroic mirror, collected to an Attofluor intensified CCD camera, and images were visualized using Attofluor RatioVision software (Atto Instruments, Rockville, Md.).
The second method for measuring cell viability was a plate reader method. Cells plated into black 96 well plates (Packard viewplates) are loaded with 5% Alamar Blue dye (Biosource International). Alamar Blue is a dye that takes advantage of mitochondrial reductases to convert non-fluorescent resazurin to fluorescent resorufin (excitation 535 nm, emission 580 nm). Baseline fluorescence counts were read at room temperature in a Wallac plate reader immediately after addition of Alamar blue. Fluorescence counts of cell viability were taken the same way after 1 hour incubation at 37° C. Fluorescence was expressed as a percent of control, untreated cells after subtraction of background fluorescence. Live/dead cells were confirmed visually with a light microscope. […]

P19 neurons = system: P19 neurons
Protocol: as §4

Casein Kinase 1 = biological target: T5, Casein Kinase 1 (Rattus norvegicus, UniProt Q06486); experiment: Kinase assay (33P Flashplate), Casein Kinase 1; type: biochemical; details: mean of at least two curves
T5 construct: a truncation at amino acid 318 of the C-terminal portion of the rat CK1 delta isoform; host or cells: E. coli
T5 sequence (Q06486 1-317): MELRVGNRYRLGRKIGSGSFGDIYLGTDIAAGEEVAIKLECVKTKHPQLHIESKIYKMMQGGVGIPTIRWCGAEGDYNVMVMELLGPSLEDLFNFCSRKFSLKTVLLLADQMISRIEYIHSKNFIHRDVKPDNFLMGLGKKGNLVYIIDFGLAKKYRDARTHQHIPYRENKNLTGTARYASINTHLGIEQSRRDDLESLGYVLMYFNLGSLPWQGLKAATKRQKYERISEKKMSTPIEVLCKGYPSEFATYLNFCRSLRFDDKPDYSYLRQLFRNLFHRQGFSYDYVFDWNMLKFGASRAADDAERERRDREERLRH
Protocol: as §2, §3

CDK1 = biological target: T6, CDK1 (Homo sapiens, UniProt P06493); experiment: Kinase assay (33P Flashplate), CDK1; type: biochemical; details: mean of at least two curves
T6 construct: host or cells: insect cells
T6 sequence (P06493 whole entry): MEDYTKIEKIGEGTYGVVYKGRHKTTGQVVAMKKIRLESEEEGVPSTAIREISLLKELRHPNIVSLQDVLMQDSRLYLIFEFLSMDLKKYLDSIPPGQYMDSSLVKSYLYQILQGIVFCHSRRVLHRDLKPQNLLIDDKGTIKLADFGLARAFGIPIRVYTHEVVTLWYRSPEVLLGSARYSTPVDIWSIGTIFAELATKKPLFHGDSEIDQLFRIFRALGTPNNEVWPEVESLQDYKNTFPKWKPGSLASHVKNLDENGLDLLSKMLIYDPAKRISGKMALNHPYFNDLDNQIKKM
T6 sequence (P14635 whole entry partner): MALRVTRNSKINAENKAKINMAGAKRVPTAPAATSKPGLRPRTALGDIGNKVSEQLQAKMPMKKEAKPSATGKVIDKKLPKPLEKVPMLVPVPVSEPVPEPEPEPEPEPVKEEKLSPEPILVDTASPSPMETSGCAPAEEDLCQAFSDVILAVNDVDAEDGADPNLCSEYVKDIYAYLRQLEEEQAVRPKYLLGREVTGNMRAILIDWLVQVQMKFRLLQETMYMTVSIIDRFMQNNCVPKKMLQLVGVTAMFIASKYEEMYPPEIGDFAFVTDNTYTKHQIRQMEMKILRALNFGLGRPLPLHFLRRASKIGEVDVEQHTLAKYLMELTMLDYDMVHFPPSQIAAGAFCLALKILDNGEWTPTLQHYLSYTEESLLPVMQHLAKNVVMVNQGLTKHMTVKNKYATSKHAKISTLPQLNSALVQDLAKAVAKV
Protocol: as §2, §3

Sequence of EGF-R (P00533 25-1210): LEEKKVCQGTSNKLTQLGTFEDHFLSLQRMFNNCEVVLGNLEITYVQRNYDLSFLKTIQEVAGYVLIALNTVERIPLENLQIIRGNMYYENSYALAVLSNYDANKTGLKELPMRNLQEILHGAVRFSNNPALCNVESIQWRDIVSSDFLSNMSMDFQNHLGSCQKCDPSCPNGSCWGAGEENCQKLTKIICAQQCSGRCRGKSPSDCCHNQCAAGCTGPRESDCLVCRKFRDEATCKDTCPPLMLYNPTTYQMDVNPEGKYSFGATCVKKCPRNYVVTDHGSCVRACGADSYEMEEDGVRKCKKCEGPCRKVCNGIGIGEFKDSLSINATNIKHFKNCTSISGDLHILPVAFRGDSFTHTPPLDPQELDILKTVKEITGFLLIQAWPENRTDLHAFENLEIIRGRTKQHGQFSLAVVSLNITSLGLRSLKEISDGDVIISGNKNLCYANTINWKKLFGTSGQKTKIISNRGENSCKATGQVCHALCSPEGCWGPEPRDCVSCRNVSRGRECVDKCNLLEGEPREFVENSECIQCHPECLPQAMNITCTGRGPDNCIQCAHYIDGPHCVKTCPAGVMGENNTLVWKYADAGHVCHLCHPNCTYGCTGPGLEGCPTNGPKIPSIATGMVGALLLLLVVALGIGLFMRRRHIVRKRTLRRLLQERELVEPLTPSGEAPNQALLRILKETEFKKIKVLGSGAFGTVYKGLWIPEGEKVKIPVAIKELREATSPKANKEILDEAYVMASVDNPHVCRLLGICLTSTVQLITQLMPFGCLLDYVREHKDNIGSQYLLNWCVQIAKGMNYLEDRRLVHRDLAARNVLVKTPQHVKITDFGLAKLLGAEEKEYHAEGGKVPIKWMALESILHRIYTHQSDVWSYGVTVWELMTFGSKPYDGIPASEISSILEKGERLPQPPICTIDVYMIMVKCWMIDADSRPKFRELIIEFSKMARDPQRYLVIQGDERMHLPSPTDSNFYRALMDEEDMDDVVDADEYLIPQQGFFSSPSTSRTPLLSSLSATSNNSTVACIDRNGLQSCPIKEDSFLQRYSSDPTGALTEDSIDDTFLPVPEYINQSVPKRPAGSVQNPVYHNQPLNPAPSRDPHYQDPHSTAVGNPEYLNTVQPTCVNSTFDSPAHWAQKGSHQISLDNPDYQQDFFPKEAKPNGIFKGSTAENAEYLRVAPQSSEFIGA

In the case of N#CC(=C(/N)Sc1ccccc1N)/C(C#N)=C(/N)Sc1ccccc1N [U0126, bis[amino[(2-aminophenyl)thio]methylene] Butanedinitrile], the IC50 (EGF-R) is reported as > 100 µM, the IC50 (PK A) is reported as > 100 µM and the IC50 (Calmodulin Kinase) is reported as > 100 µM. For the same molecule, the IC50 (Casein Kinase 2) was > 100 µM, the IC50 (PKC-γ) was 29.5 µM and the IC50 ([1]; mean of three separate curves, read-out: IC50 for Neuroprotection [lower-upper 95% C.I.]) was 1.1 µM. The Emax ([1]; read-out: Maximal Efficacy for Neuroprotection) was > 80%, the “effect on basal P19 neuron viability” value (P19 neurons) was “did not affect the basal viability” and the IC50 (Casein Kinase 1) was > 100 µM. The IC50 (CDK1) was > 100 µM.
